According to US20230121313A1 (priority 2019, published 2023):

Columns and labels:
[1] = system: patients with treatment-resistant depression (TRD); assay: Vital signs (blood pressure, heart rate), phase 2 dose-response study in TRD; type: in vivo, human
[2] = system: patients; assay: Adverse reactions across clinical studies as described in product labeling; type: in vivo, human
Source text: In the product labeling, patients will be informed that dissociative/perceptual changes (including distortion of time and space and illusions), derealization and depersonalization are common psychological effects of esketamine. Patients will be further advised that • These adverse reactions were reported as transient and self-limited and occurred on the day of dosing. • Dissociation was reported as severe in intensity at the incidence of less than 4% across studies, • Dissociation symptoms typically resolved by 1.5 hours after dosing and the severity tended to reduce over time with repeated treatments. • Dissociative and perception disturbances may decrease after a few treatment sessions.
The product label will include a brief description of the adverse reactions of sedation and somnolence reported in clinical studies with esketamine: • Events of sedation and somnolence were primarily mild or moderate in severity, occurred on the day of dosing and resolved spontaneously the same day. • The sedative effects typically resolved by 1.5 hours after dosing. • Rates of somnolence were relatively stable over time during long-term treatment. • In the cases of sedation, no symptoms of respiratory distress were observed, and hemodynamic parameters (including vital signs and oxygen saturation) remained within normal ranges.

[3] = system: subjects with MDD at imminent risk for suicide; assay: MADRS total score, Study […]2001 (change, sustained response, response, remission); type: in vivo, human; details: for MADRS total score change, Diff. of LS Means (minus Placebo): ANCOVA LOCF; for MADRS total score, change from baseline, mean / MADRS total score, change from baseline, median / MADRS total score, mean / MADRS total score, median: LOCF, ITT N = 35
Source text: Primary efficacy variable/Primary Time point: Change from baseline (Day 1, predose) to Day 1, 4-hours postdose in MADRS total score. The MADRS consists of 10 items that cover all of the core depressive symptoms, with each item scoring from 0 (item is not present or is normal) to 6 (severe or continuous presence of the symptom). A higher score represents a more severe condition.
(§1) • a. Changes from baseline to Day 2 and Day 25 for the MADRS total score • b. Changes from baseline to Day 1 4-hours postdose, Day 2 and Day 25 for the MADRS Suicide Item • c. Changes from baseline to Day 1 4-hours postdose, Day 2, and Day 25 for the clinical global judgment of suicide risk from the Suicide Ideation and Behavior Assessment Tool (SIBAT) • d. Sustained response (Onset of Clinical Response) defined as at least 50% reduction from baseline in MADRS total score with onset on Day 1 that is maintained through the end of the double-blind phase (Day 25) • e. Changes from baseline to Day 1 4-hours postdose, Day 2, and Day 25 for the Beck Scale for Suicidal Ideation (BSS) • f. Changes from baseline to Day 1 4-hours postdose and Day 25 for the Beck Hopelessness Scale
The primary efficacy endpoint is the change in MADRS total score from baseline to Day 1: 4-hours postdose. MADRS total scores range from 0 to 60. […] As this is a phase 2a proof-of-concept study, statistical significance is based on a two-sided alpha level of 0.20. All p-values presented in this document are two-sided.
Sustained response is defined as at least 50% reduction from baseline in MADRS total score with onset on Day 1: 4 hours postdose that is maintained through the end of the double-blind phase (Day 25). Four subjects in the esketamine 84 mg group and 2 subjects in the placebo group had sustained response throughout the double-blind phase.

[4] = system: elderly subjects with TRD; details: human, in vivo, other: intranasal
Source text: The Modified Observer's Assessment of Alertness/Sedation (MOAA/S) was used to measure treatment-emergent sedation with correlation to levels of sedation defined by the American Society of Anesthesiologists (ASA) continuum. The MOAA/S scores range from 0 (No response to painful stimulus; corresponds to ASA continuum for general anesthesia) to 5 (Readily responds to name spoken in normal tone [awake]; corresponds to ASA continuum for minimal sedation). The proportion of subjects with sedation was <4% for the esketamine group for each dosing day.

[5] = system: subjects with TRD; details: human, in vivo, other: intranasal
Protocol: Transient blood pressure increases peaked for the esketamine group at approximately 40 minutes post dose and returned closer to predose levels by 1.5 hours post dose.

[6] = system: subjects with MDD at imminent risk for suicide; assay: SIBAT Clinical Global Judgment of Suicide Risk, Study […]2001; type: in vivo, human; details: 84 mg
Source text: as §1
The clinical global judgment of suicide risk (Module 8) summarizes clinician overall judgment of suicide risk as derived from information gathered from the full SIBAT tool. It operates like numerous other CGI-severity scales that have been used in other psychiatric studies. Change in the clinical global judgment of suicide risk is designed to directly identify clinical meaningful changes in suicidal ideation and to permit classification of suicide risk.
The analysis of the change in SIBAT score was based on an ANCOVA model on ranks of change in SIBAT with treatment, antidepressant therapy, and analysis center as factors, and baseline value (unranked) as a covariate. There was a significant difference (two-sided […]) between the two treatment groups when comparing the mean rank of change from baseline at Day 1: 4-hours postdose in favor of esketamine 84 mg See, Table 58. See, FIG. 39. […] This difference was not evident at the Day 25 DB endpoint. See, FIG. 40, which is based on LOCF data and analyzed using Cochran-Mantel-Haenszel test controlling for analysis center and antidepressant therapy.

[7] = system: adult subjects with TRD; details: human, in vivo, other: intranasal
Protocol: The CADSS is an instrument for the measurement of present-state dissociative symptoms, and was administered to assess treatment-emergent dissociative symptoms. The CADSS consists of 23 subjective items, divided into 3 components: Depersonalization (Items 3 to 7, 20, and 23), derealization (Items 1, 2, 8 to 13, 16 to 19, and 21) and amnesia (Items 14, 15, and 22). Participant's responses were coded on a 5-point scale (0=not at all through to 4=extremely).
The Clinician Administered Dissociative States Scale (CADSS) was measured prior to the start of each dose, at 40 minutes, and 1.5 hours postdose.

SMILES: CN[C@]1(c2ccccc2Cl)CCCCC1=O [esketamine, (S)-2-(2-chlorophenyl)-2-(methylamino)cyclohexanone]
- Diastolic blood pressure: maximum mean change on dosing days [1]: 10.3 mmHg
- Elevated blood pressure returned to the normal range by (post-dose) [1]: ≤ 2 h
- Heart rate: maximum mean change on dosing days [1]: 9.4 bpm
- Systolic blood pressure: maximum mean change on dosing days [1]: 19.0 mmHg
- Maximum diastolic blood pressure value ([1]; 10 or 40 minutes post-dose): 115 mmHg
- Maximum systolic blood pressure value ([1]; 10 or 40 minutes post-dose): 199 mmHg
- Dissociation symptoms typically resolved by (after dosing) ([2]; across studies): ≤ 1.5 h
- Incidence of dissociation reported as severe in intensity ([2]; across studies): less than 4%
- Sedative effects typically resolved by (after dosing) ([2]; clinical studies): ≤ 1.5 h
- MADRS total score change, Diff. of LS Means (minus Placebo) ([3]; 84 mg, Day 1 (DB): 4 H): −5.3
- MADRS total score, change from baseline, mean ([3]; 84 mg, Day 1 (DB): 4 H): −13.4
- MADRS total score, change from baseline, median ([3]; 84 mg, Day 1 (DB): 4 H): −14.0
- MADRS total score, mean ([3]; 84 mg, Day 1 (DB): 4 H): 25.1
- MADRS total score, median ([3]; 84 mg, Day 1 (DB): 4 H): 23.0
- MADRS total score change, Diff. of LS Means (minus Placebo) ([3]; 84 mg, Day 2 (DB)): −7.2
- MADRS total score, change from baseline, mean ([3]; 84 mg, Day 2 (DB)): −19.3
- MADRS total score, change from baseline, median ([3]; 84 mg, Day 2 (DB)): −19.0
- MADRS total score, mean ([3]; 84 mg, Day 2 (DB)): 19.2
- MADRS total score, median ([3]; 84 mg, Day 2 (DB)): 18.0
- MADRS total score change, Diff. of LS Means (minus Placebo) ([3]; 84 mg, End Point (DB)): −4.5
- MADRS total score, change from baseline, mean ([3]; 84 mg, End Point (DB)): −26.4
- MADRS total score, change from baseline, median ([3]; 84 mg, End Point (DB)): −25.0
- MADRS total score, mean ([3]; 84 mg, End Point (DB)): 12.1
- MADRS total score, median ([3]; 84 mg, End Point (DB)): 8.0
- Day 25 sustained response based on MADRS total score: No, subjects (%) ([3]; 84 mg, ITT): 88.2%
- Day 25 sustained response based on MADRS total score: Yes, subjects (%) ([3]; 84 mg, at least 50 percent reduction with onset on Day 1 maintained through Day 25, ITT): 11.8%
- Subjects with sustained response (≥50% MADRS reduction from Day 1 4 h through Day 25) ([3]; […]2001, 84 mg): Four
- MADRS total score: mean change from baseline (SD) ([3]; […]2001, 84 mg, Day 1: 4-hours postdose): −13.4 (9.03)
- MADRS total score: mean change from baseline (SD) ([3]; […]2001, 84 mg, Day 2 (DB)): −19.3 (12.02)
- MADRS total score: mean change from baseline (SD) ([3]; […]2001, 84 mg, End Point (DB)): −26.4 (14.52)
- Subjects who discontinued due to lack of efficacy ([3]; […]2001, 84 mg, double-blind phase): 1 subject
- MADRS total score: least-square mean difference (SE) from placebo, ANCOVA ([3]; […]2001, esketamine 84 mg, Day 1, 4-hours postdose): −5.3 (2.10)
- Proportion of subjects with sedation (post dose MOAA/S score ≤3) [4]: < 4%
- Blood pressure returned closer to predose levels by (post dose) [5]: ≤ 1.5 h
- Transient blood pressure increases: time of peak post dose [5]: approximately 40 minutes
- SIBAT Clinical Global Judgment of Suicide Risk, change from baseline, median (range) ([6]; Day 1 (DB): 4 H, LOCF, N 33): 0.0 (−6; 1)
- SIBAT Clinical Global Judgment of Suicide Risk, median (range) ([6]; Day 1 (DB): 4 H, LOCF, N 33): 5.0 (0; 6)
- SIBAT Clinical Global Judgment of Suicide Risk, change from baseline, median (range) ([6]; Day 2(DB) LOCF, N 35): −1.0 (−6; 1)
- SIBAT Clinical Global Judgment of Suicide Risk, median (range) ([6]; Day 2(DB) LOCF, N 35): 5.0 (0; 6)
- Subjects with a SIBAT score of 5 or 6 ([6]; […]2001, Day 1: 4-hour postdose): 63.6%
- CADSS dissociative and perceptual change symptoms resolved by (postdose) [7]: ≤ 1.5 h
